# B1: E-box oligonucleotide (dsDNA)
# DNA 1: GATCAGTTGACCACGTGGTCTGGG
# DNA 2: CCCAGACCACGTGGTCAACTGATC
# Legend:
# Myc:Max interaction = molecular target: T1, Myc:Max interaction (Homo sapiens, UniProt P01106); test: Cell-free Myc:Max ELISA; format: biochemical; settings: average with standard deviation; combinations as equimolar (1:1) titrations, concentration of each monomer; read-out: ELISA (IC50), inhibition of cell-free MYC-MAX heterodimer formation
# T1 construct: purchased Origene (Myc); Sino Biologicals (Max)
# Experimental: High binding 96-well plates were coated with GST-conjugated full-length Max protein (Sino Biologicals) at 1ng/μL in 100μl of PBS overnight at 4°C. The plate was washed 4x 200 μl/well with PBS and blocked in 200 μl/well of 5% nonfat dry milk in PBS for 2 hours at room temperature. […] Compounds were serially diluted in 100% DMSO and then sequentially diluted […] into the Myc solution before incubation for one hour at room temperature. For internal consistency, final DMSO concentrations were kept at 2%. The blocked plate was washed 4x 200μl/well with Buffer A, before addition of 100 μl of the Myc compound mixture. Plates were incubated for four hours at RT, and washed 4x 200 μl Buffer A/well. Anti-Myc antibody (Cell Signaling) was diluted 1:1000 in 5% nonfat dry milk in Buffer A. 100 μL/well diluted primary antibody was added to each well and incubated for one hour at room temperature. Plates were washed 4x 200 μl/well Buffer A. HRP-conjugated goat anti-rabbit antibody (GE Healthcare) was diluted 1:5000 in 5% nonfat dry milk in Buffer A. 100 μL/well diluted secondary antibody was added to each well and incubated for thirty minutes at room temperature. The plates were washed 4x 200 μL/well Buffer A. 50 μL/well of FEMTO chemiluminescent reagent (Thermo Scientific) was added, and luminescence was immediately read on a Victor X5 plate reader (PerkinElmer) with a 0.1 sec integration time. IC50s were generated through non-linear fitting of data with prism (GraphPad).
# We next asked whether the binding of these dimers to Myc could disrupt the interaction with its transcriptional partner Max. We developed an ELISA using purified Myc and Max protein that allowed us to measure effects on Myc:Max binding. The ELISA plate was initially coated with Max protein and the compounds pre-incubated with Myc protein prior to addition to the Max-coated plate. After extensive washing, Myc binding to Max was detected using an anti-Myc antibody. […] We observe similar effects for the dimeric inhibitor E08+N11 (Table 1).
# Daudi cells = test: Cell proliferation / viability assay and Bliss synergy analysis; format: cell-based; settings: concentrations up to 30 μM, 3 days
# Experimental: K562 (CCL-243), Daudi (CCL-213), Raji (CCL-86) and MV4-11(CCL-9591) cells were purchased directly from American Type Culture Collection (Manassas, VA) and routinely cultured under recommended conditions. Growth and proliferation was determined by use of Cell Titer 96 Aqueous One Solution (Promega, Madison, WI). All cells were plated at 10,000 cells per well in growth media in a clear 96 well plate. After 3 days of compound treatment reagent was added, and absorbance at 490 nm was read after incubation for 4 hours at 37°C. A control plate of compound diluted in media at the same concentrations was treated in a similar way and these values subtracted from the cell plate data to control for any compound interference in the assay. Synergy was determined using the Bliss model of independence.
# We screened pairwise combinations of monomers from our libraries in a cell proliferation assay. Increasing concentrations of each compound were dosed in an 8x6 matrix format and their effects on cell proliferation monitored. […] The majority of the combinations were additive in nature, a result consistent with the combination of the two parent ligands C01 and C02 (S1 Fig.). We identified a number of combinations that were synergistic, and representative graphs showing dose dependent inhibition of proliferation with 2 different combinations (E07+N12 and E08+N11) are shown (Fig. 2 A and B). There was no activity of the individual compounds E07, E08, N12, or N11 in the proliferation assay at concentrations up to 30 μM.
# Our cell-free experiments had clearly shown that the ability for self-assembly of the dimer was important in driving the improved inhibitory effect versus the Myc protein. To test this in a cellular context we compared the effect on cell viability of the E08+N11 dimer versus its non-dimerizable control combination E08+C11. […] Similar effects on cell viability and Myc protein levels were also observed for the dimer E07+N12 but not its non-dimerizable control E07+C12 (S5 Fig.).
# [1] = molecular target: T2, Max:Max homodimers in complex with E-box DNA (Homo sapiens, UniProt P61244); test: Electrophoretic mobility shift assay (EMSA), Max:Max homodimer binding to DNA; format: biochemical; settings: cell-free EMSA, E-box oligonucleotide
# T2 construct: His-tagged and GST-tagged full-length human Max protein; purchased Sino Biologicals #12885-H20B
# [2] = molecular target: T3, His-tagged bHLH-LZ domain of human Myc protein (aa353-439) (Homo sapiens, UniProt P01106); test: Surface Plasmon Resonance binding to immobilized Myc; settings: average KD, equilibrium fit, 25°C; combinations as equimolar titrations; read-out: SPR (Kd), direct MYC binding
# T3 construct: human Myc protein (aa353-439, Cayman Chemicals, Ann Arbor, MI); purchased Cayman Chemicals
# Experimental: All SPR experiments were performed on a Bio-Rad XPR36 instrument at 25°C. His-tagged bHLH-LZ domain of human Myc protein (aa353-439, Cayman Chemicals, Ann Arbor, MI) was immobilized in running buffer (20 mM Na-phosphate, pH 7.5, 300 mM NaCl, 4 mM KCl,. 05% Tween20) in the absence of DMSO at 25μL/min for 400 seconds on Bio-Rad HTE (Ni-NTA) chips with a resulting RU value of about 4500 after immobilization. Compound binding was analyzed in the same running buffer with a final DMSO concentration of 2%. Compounds were injected at 30μL/min for 180 seconds with a dissociation time of 300 seconds. Injections consisted of 5 concentrations of compounds plus a blank channel for reference that flowed over all immobilized ligands in a matrix format. Regeneration steps were not required due to the rapid dissociation of compounds. Equilibrium fits were performed with the ProteOn software after inter-spot and reference channel subtractions.
# We next analyzed whether these dimeric inhibitors could directly bind to Myc. To do this we developed a Surface Plasma Resonance (SPR) assay to compare the binding affinities of the monomers to that of the dimeric inhibitors. We immobilized the bHLHZip domain of Myc to the surface of a Ni-NTA chip via a His-tag and measured binding affinities for the monomers or dimers. […] We observed similar data with the E08+N11 dimer.
# [3] = molecular target: T4, Myc:Max heterodimers in complex with E-box DNA (Homo sapiens, UniProt P01106); test: Electrophoretic mobility shift assay (EMSA), Myc:Max heterodimer binding to DNA; format: biochemical; settings: cell-free EMSA, E-box oligonucleotide
# T4 construct: c-Myc residues Asn352 to Ala439; 6xHis (N); TEV cleavage site (N); purchased Cayman Chemical (Myc, custom expression); Sino Biologicals (Max) #12885-H20B (Max); host or cells: E. coli BL21StarDE3 (Myc)
# Experimental: Human c-Myc (NP_002458.2) containing the bHLH-LZ domain was cloned into a modified pET21a vector and then transformed into the BL21StarDE3 expression system, expressed, and purified at Cayman Chemical. The construct consists of an N-terminal 6xHis tag with a TEV cleavage site, c-Myc residues Asn352 to Ala439, and a GGCD C-terminal extension (molecular weight 12.9 kDa). Compounds were added to 200 ng c-Myc in reaction buffer (100 mM KCL, 1 mM DTT, 1 mM EDTA, 50 mM Tris pH7.4, 5mM MgCl2, 0.002% NP40) and incubated for 60 minutes at room temperature. […] Finally, annealed double-stranded E-box containing DNA oligonucleotide with sequence 5’-[…]-3’ was added to a final concentration of 100 nM for twenty minutes incubation at room temperature. The final concentration of DMSO was kept constant at 2%. The protein-DNA complexes (final volume 10 μl) were resolved on NativePAGE Novex 4–16% Bis-Tris Protein Gels (Life technologies, #BN1002BOX) at 4°C with pre-chilled TBE (89 mM Tris-borate, 1 mM EDTA) at 125V for 90 minutes. SYBR Green EMSA Nucleotide Acid gel stain (Molecular Probes, #E33075) was used to stain dsDNA and DNA-protein complexes. Images were captured with an Alpha Innotech FluorChem Q imager installed with AlphaView software.
# The formation of the Myc:Max heterodimer is required for its ability to bind to DNA sequences and trigger transcriptional activation of Myc-dependent genes. […]
# Max = Max (human, UniProt P61244 1-160); test: EMSA; Max:Max homodimer, no Myc; EMSA: 100 mM KCl, 1 mM DTT, 1 mM EDTA, 50 mM Tris pH 7.4, 5 mM MgCl2, 0.002% NP40, 2% DMSO, room temperature; 200 ng Myc, 350 ng Max, 100 nM DNA, 10 ul; gel run in TBE at 4 C; settings: protein: commercial; tags: His and GST; chain copies: 2; label: none (SYBR Green stain); (only one strand given)
# Max, sequence (P61244 whole entry): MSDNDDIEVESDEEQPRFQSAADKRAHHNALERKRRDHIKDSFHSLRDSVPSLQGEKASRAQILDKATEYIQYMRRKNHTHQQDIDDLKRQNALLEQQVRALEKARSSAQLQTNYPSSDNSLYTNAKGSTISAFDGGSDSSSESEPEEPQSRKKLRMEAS
# T3 sequence (P01106 368-454): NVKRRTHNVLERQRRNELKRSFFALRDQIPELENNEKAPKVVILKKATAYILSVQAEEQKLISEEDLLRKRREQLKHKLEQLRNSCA
# T1 sequence (P01106 whole entry): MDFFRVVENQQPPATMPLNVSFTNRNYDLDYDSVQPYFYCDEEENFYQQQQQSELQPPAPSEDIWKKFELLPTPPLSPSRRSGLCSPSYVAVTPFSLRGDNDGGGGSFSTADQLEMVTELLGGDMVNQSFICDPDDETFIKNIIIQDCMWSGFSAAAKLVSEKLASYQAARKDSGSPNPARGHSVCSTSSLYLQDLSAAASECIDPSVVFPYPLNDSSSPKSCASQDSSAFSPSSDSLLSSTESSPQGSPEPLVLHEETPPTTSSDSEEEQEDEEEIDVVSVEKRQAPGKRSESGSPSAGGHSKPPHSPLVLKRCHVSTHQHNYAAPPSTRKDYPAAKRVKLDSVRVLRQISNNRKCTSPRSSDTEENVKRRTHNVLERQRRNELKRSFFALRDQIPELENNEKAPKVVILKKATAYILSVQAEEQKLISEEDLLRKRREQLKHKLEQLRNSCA
# T4 sequence (P01106 with tags, fused parts or gaps): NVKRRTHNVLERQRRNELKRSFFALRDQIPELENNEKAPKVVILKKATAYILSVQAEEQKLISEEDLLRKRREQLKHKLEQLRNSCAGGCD
Molecule,IC50 (Myc:Max interaction) [µM],activity of the individual compounds in the proliferation assay (Daudi cells),effect on Max:Max complex binding to DNA (gel mobility shift) [1],Kd [2] [µM],effect on Myc:Max complex binding to DNA (gel mobility shift) [3],binding result (Max)
O=C(NCc1cccc(B(O)O)c1)c1ccccc1Nc1ccc([N+](=O)[O-])c2nonc12 [E07],24 ± 7.4,no activity,"Neither of the two monomers, E07 or N12, had any noticeable effect",42 ± 10,"Neither of the two monomers, E07 or N12, had any noticeable effect",–
CCc1ccc(/C=C2\SC(=O)N(CCNC(=O)[C@@H]3C[C@@H]4C[C@H]3[C@@H](O)[C@H]4O)C2=O)cc1 [N11],> 30,no activity,–,> 50,–,–
"NC(=O)c1ccccc1Nc1ccc([N+](=O)[O-])c2nonc12 [C02, 2-((7-Nitrobenzo[c][1,2,5]oxadiazol-4-yl)amino)benzamide, reference compound]",> 30,–,–,–,–,–
CCc1ccc(/C=C2\SC(=O)N(CCNC(=O)[C@@H]3C[C@H]4C=C[C@H]3C4)C2=O)cc1 [C11],> 30,–,–,> 50,–,–
CCc1ccc(/C=C2\SC(=O)N(CC[C@@H]3C[C@@H]4C=C[C@H]3C4)C2=O)cc1 [C12],> 30,–,–,> 50,–,–
CCc1ccc(/C=C2\SC(=O)N(CC[C@@H]3C[C@H]4C[C@@H]3[C@H](O)[C@@H]4O)C2=O)cc1 [N12],> 30,no activity,"Neither of the two monomers, E07 or N12, had any noticeable effect",> 50,"Neither of the two monomers, E07 or N12, had any noticeable effect",–
O=C(NCc1ccc(B(O)O)cc1)c1ccccc1Nc1ccc([N+](=O)[O-])c2nonc12 [E08],> 30,no activity,–,47 ± 9,–,–
"CCc1ccc(/C=C2\SC(=O)NC2=O)cc1 [C01, reference compound]",> 30,–,–,–,–,–
B1,–,–,–,–,–,binds
